Tested on: tobacco budworm (Heliothis virescens [Fabricius])
Experiment: surface-treated diet test, insecticidal activity against tobacco budworm
Assay type: in vivo
Set-up: mortality: concentration or dose not given beside the values
Conditions: 0.25 millimoles of candidate insecticide on the surface of the diet, second instar larvae, five-day exposure; for Percent Mortality / mortality: compared to total number of insects infested; for Percent Growth Inhibition / pest or weed control at 0.25 mmol/well: inhibition of insect weight relative to untreated controls; for mortality / pest or weed control at 0.25 mmol/well: Heliothis virescens, 120 h; for mortality: read-out: Percent Mortality; for pest or weed control at 0.25 mmol/well: read-out: Percent Growth Inhibition
Procedure: Candidate insecticides were evaluated for activity against the tobacco budworm (Heliothis virescens [Fabricius]) in a surface-treated diet test.
In this test one mL of molten (65-70° C.) wheat germ-based artificial diet was pipetted into each well of a four by six (24 well) multi-well plate (ID# 430345-15.5 mm dia.×17.6 mm deep; Corning Costar Corp., One Alewife Center, Cambridge, Mass. 02140). The diet was allowed to cool to ambient temperature before treatment with candidate insecticide.
For a determination of insecticidal activity, solutions of the candidate insecticides were prepared for testing using a Packard 204DT Multiprobe® Robotic System (Packard Instrument Company, 800 Research Parkway, Meriden, Conn. 06450), in which the robot first diluted a standard 50 millimolar DMSO solution of candidate insecticide with a 1:1 water/acetone solution (V/V) in a ratio of 1:7 stock solution to water/acetone. The robot subsequently pipetted 40 microliters of the so-prepared solution onto the surface of the diet in each of three wells in the 24 multi-well plate. The process was repeated with solutions of seven other candidate insecticides. Once treated, the contents of the multi-well plate were allowed to dry, leaving 0.25 millimoles of candidate insecticide on the surface of the diet, or a concentration of 0.25 millimolar. Appropriate untreated controls containing only DMSO on the diet surface were also included in this test.
For evaluations of the insecticidal activity of a candidate insecticide at varying rates of application, the test was established as described above using sub-multiples of the standard 50 millimolar DMSO solution of candidate insecticide. For example, the standard 50 millimolar solution was diluted by the robot with DMSO to give 5, 0.5, 0.05, 0.005, 0.0005 millimolar, or more dilute solutions of the candidate insecticide. In these evaluations there were six replicates of each rate of application placed on the surface of the diet in the 24 multi-well plate, for a total of four rates of application of candidate insecticide in each plate.
In each well of the test plate was placed one second instar tobacco budworm larvea, each weighing approximately five milligrams. After the larvae were placed in each well, the plate was sealed with clear polyfilm adhesive tape. The tape over each well was perforated to ensure an adequate air supply. The plates were then held in a growth chamber at 25° C. and 60% relative humidity for five days (light 14 hours/day).
After the five-day exposure period insecticidal activity for each rate of application of candidate insecticide was assessed as percent inhibition of insect weight relative to the weight of insects from untreated controls, and percent mortality when compared to the total number of insects infested.
The test compounds of formula I are identified by numbers that correspond to those in Table 1.

CC(O)c1ccc(C(c2ccc(OC(F)(F)F)cc2)C2(O)CCN(Cc3ccc(Oc4ccccn4)cc3)CC2)cc1 (mixture of isomers) [Compound 287]
Percent Mortality: 100%
Percent Growth Inhibition: 100%

CC1(C)C(C=C(Cl)C(F)(F)F)C1C(=O)[O-].OC1(C(c2ccc(C(F)(F)F)cc2)c2ccc(C(F)(F)F)cc2)CC[N+](O)(Cc2ccc(Oc3ccc(Cl)nn3)cc2)CC1 (mixture of isomers) [Compound 519]
Percent Mortality: 100%
Percent Growth Inhibition: 100%

OC1(C(c2ccc(F)cc2)c2ccc(OC(F)(F)F)cc2)CCN(Cc2ccc(Oc3ccccn3)cc2)CC1 (racemic) [Compound 268]
Percent Mortality: 100%
Percent Growth Inhibition: 100%

OC1(C(c2ccc(OC(F)F)cc2)c2ccc(OC(F)(F)F)cc2)CCN(Cc2ccc(Oc3ccccn3)cc2)CC1 (racemic) [Compound 269]
Percent Mortality: 100%
Percent Growth Inhibition: 100%

OC(c1ccc(Cl)cc1)c1ccc(CN2CCC(O)(C(c3ccc(OC(F)(F)F)cc3)c3ccc(OC(F)(F)F)cc3)CC2)cc1 (racemic) [Compound 278]
Percent Mortality: 100%
Percent Growth Inhibition: 100%

OC(c1ccc(CN2CCC(O)(C(c3ccc(OC(F)(F)F)cc3)c3ccc(OC(F)(F)F)cc3)CC2)cc1)c1ccccn1 (racemic) [Compound 282]
Percent Mortality: 100%
Percent Growth Inhibition: 100%

CC(C)=CCCC(C)=CCON=Cc1ccc(C(c2ccc(OC(F)(F)F)cc2)C2(O)CCN(Cc3ccc(Oc4ccccn4)cc3)CC2)cc1 (racemic) [Compound 284]
Percent Mortality: 17%
Percent Growth Inhibition: 100%

OC1(C(c2ccccc2)c2ccc(OC(F)(F)F)cc2)CCN(Cc2ccc(Oc3ccccn3)cc2)CC1 (racemic) [Compound 288]
Percent Mortality: 100%
Percent Growth Inhibition: 100%

CC(=O)OC(c1ccc(Cl)cc1)c1ccc(CN2CCC(O)(C(c3ccc(OC(F)(F)F)cc3)c3ccc(OC(F)(F)F)cc3)CC2)cc1 (racemic) [Compound 289]
Percent Mortality: 100%
Percent Growth Inhibition: 100%

OC1(C(c2ccc(OC(F)(F)F)cc2)c2ccc(C3OCCO3)cc2)CCN(Cc2ccc(Oc3ccccn3)cc2)CC1 (racemic) [Compound 295]
Percent Mortality: 100%
Percent Growth Inhibition: 100%

OC1(C(c2ccccc2Cl)c2ccccc2Cl)CCN(Cc2ccc(Oc3ncccn3)cc2)CC1 [Compound 1]
Percent Mortality: 0%
Percent Growth Inhibition: 57%

OC1(C(c2ccc(OC(F)(F)F)cc2)c2ccc(C(F)(F)F)cc2)CCN(Cc2ccc(Oc3ncccn3)cc2)CC1 (stereo not shown) [Compound 2]
Percent Mortality: 100%
Percent Growth Inhibition: 100%

OC1(C(c2ccc(C(F)(F)F)cc2)c2cc(Cl)cc(Cl)c2)CCN(Cc2ccc(Oc3ncccn3)cc2)CC1 (stereo not shown) [Compound 3]
Percent Mortality: 100%
Percent Growth Inhibition: 100%

OC1(C(c2ccc(Cl)c(F)c2)c2ccc(Cl)c(F)c2)CCN(Cc2ccc(Oc3ncccn3)cc2)CC1 [Compound 4]
Percent Mortality: 100%
Percent Growth Inhibition: 100%

COc1cc(OC)cc(C(c2ccc(C(F)(F)F)cc2)C2(O)CCN(Cc3ccc(Oc4ncccn4)cc3)CC2)c1 (stereo not shown) [Compound 5]
Percent Mortality: 0%
Percent Growth Inhibition: 97%

OC1(C(c2ccc(Cl)cc2)c2ccc(C(F)(F)F)cc2)CCN(Cc2ccc(Oc3ncccn3)cc2)CC1 (stereo not shown) [Compound 7]
Percent Mortality: 100%
Percent Growth Inhibition: 100%

OC1(C(c2cccc(F)c2)c2cccc(F)c2)CCN(Cc2ccc(Oc3ncccn3)cc2)CC1 [Compound 8]
Percent Mortality: 0%
Percent Growth Inhibition: 41%

OC1(C(c2ccc(C(F)(F)F)cc2)c2ccc(Cl)c(Cl)c2)CCN(Cc2ccc(Oc3ncccn3)cc2)CC1 (stereo not shown) [Compound 9]
Percent Mortality: 100%
Percent Growth Inhibition: 100%

OC1(C(c2cc(F)cc(F)c2)c2cc(F)cc(F)c2)CCN(Cc2ccc(Oc3ncccn3)cc2)CC1 [Compound 10]
Percent Mortality: 0%
Percent Growth Inhibition: 50%

OC1(C(c2ccc(C(F)(F)F)cc2)c2cc(F)cc(F)c2)CCN(Cc2ccc(Oc3ncccn3)cc2)CC1 (stereo not shown) [Compound 11]
Percent Mortality: 33%
Percent Growth Inhibition: 100%

OC1(C(c2ccc(C(F)(F)F)cc2)c2cccc(F)c2)CCN(Cc2ccc(Oc3ncccn3)cc2)CC1 (stereo not shown) [Compound 12]
Percent Mortality: 0%
Percent Growth Inhibition: 100%

OC1(C(c2ccc(C(F)(F)F)cc2)c2cc(Cl)ccc2Cl)CCN(Cc2ccc(Oc3ncccn3)cc2)CC1 (stereo not shown) [Compound 13]
Percent Mortality: 100%
Percent Growth Inhibition: 100%

OC1(C(c2ccc(C(F)(F)F)cc2)c2cccc(Cl)c2)CCN(Cc2ccc(Oc3ncccn3)cc2)CC1 (stereo not shown) [Compound 14]
Percent Mortality: 100%
Percent Growth Inhibition: 100%

OC1(C(c2ccc(C(F)(F)F)cc2)c2ccc(Cl)cc2Cl)CCN(Cc2ccc(Oc3ncccn3)cc2)CC1 (stereo not shown) [Compound 15]
Percent Mortality: 100%
Percent Growth Inhibition: 100%

OC1(C(c2ccc(C(F)(F)F)cc2)c2ccc(C(F)(F)F)cc2)CCN(Cc2ccc(Oc3ncccn3)cc2)CC1 [Compound 16]
Percent Mortality: 100%
Percent Growth Inhibition: 100%

OC1(C(c2ccc(C(F)(F)F)cc2)c2ccc(F)c(F)c2)CCN(Cc2ccc(Oc3ncccn3)cc2)CC1 (stereo not shown) [Compound 17]
Percent Mortality: 83%
Percent Growth Inhibition: 100%

OC1(C(c2ccc(C(F)(F)F)cc2)c2ccccc2Cl)CCN(Cc2ccc(Oc3ncccn3)cc2)CC1 (stereo not shown) [Compound 18]
Percent Mortality: 100%
Percent Growth Inhibition: 100%

OC1(C(c2ccc(OC(F)(F)F)cc2)c2ccc(OC(F)(F)F)cc2)CCN(Cc2ccc(Oc3ncccn3)cc2)CC1 [Compound 19, 4-{bis[4-(trifluoromethoxy)phenyl]methyl}-1-[(4-pyrimidin-2-yloxyphenyl)methyl]piperidin-4-ol]
mortality: 100%
pest or weed control at 0.25 mmol/well: 100%

OC1(C(c2ccc(OC(F)(F)F)cc2)c2ccc(OC(F)(F)F)cc2)CCN(Cc2ccc(-c3ncccn3)cc2)CC1 [Compound 20]
Percent Mortality: 100%
Percent Growth Inhibition: 100%

OC1(C(c2ccc(OC(F)(F)F)cc2)c2ccc(OC(F)(F)F)cc2)CCN(Cc2ccc(Oc3ccccn3)cc2)CC1 [Compound 21, 4-{bis[4-(trifluoromethoxy)phenyl]methyl}-1-[(4-(2-pyridyloxy)phenyl)methyl]piperidin-4-ol]
mortality: 100%
pest or weed control at 0.25 mmol/well: 100%

OC1(C(c2ccc(C(F)(F)F)cc2)c2ccc(C(F)(F)F)cc2)CCN(Cc2ccc(Oc3ccccn3)cc2)CC1 [Compound 22]
Percent Mortality: 100%
Percent Growth Inhibition: 100%

CCn1nnc(-c2ccc(CN3CCC(O)(C(c4ccc(Cl)cc4)c4ccc(Cl)cc4)CC3)cc2)n1 [Compound 23]
Percent Mortality: 100%
Percent Growth Inhibition: 100%

CCn1nnc(-c2ccc(CN3CCC(O)(C(c4cccc(Cl)c4)c4cccc(Cl)c4)CC3)cc2)n1 [Compound 24]
Percent Mortality: 0%
Percent Growth Inhibition: 98%

CCn1nnc(-c2ccc(CN3CCC(O)(C(c4ccc(OC(F)(F)F)cc4)c4ccc(OC(F)(F)F)cc4)CC3)cc2)n1 [Compound 25]
Percent Mortality: 100%
Percent Growth Inhibition: 100%

CCn1nnc(-c2ccc(CN3CCC(O)(C(c4ccc(Cl)c(Cl)c4)c4ccc(Cl)c(Cl)c4)CC3)cc2)n1 [Compound 26]
Percent Mortality: 100%
Percent Growth Inhibition: 100%

CCn1nnc(-c2ccc(CN3CCC(O)(C(c4ccc(C(F)(F)F)cc4)c4ccc(C(F)(F)F)cc4)CC3)cc2)n1 [Compound 27]
Percent Mortality: 100%
Percent Growth Inhibition: 100%

CCON=Cc1ccc(CN2CCC(O)(C(c3ccc(OC(F)(F)F)cc3)c3ccc(OC(F)(F)F)cc3)CC2)cc1 [Compound 28]
Percent Mortality: 100%
Percent Growth Inhibition: 100%

CC(C)OC(=O)Nc1ccc(CN2CCC(O)(C(c3ccc(OC(F)(F)F)cc3)c3ccc(OC(F)(F)F)cc3)CC2)cc1 [Compound 29]
Percent Mortality: 100%
Percent Growth Inhibition: 100%

Reference: US8119563B2, “N-substituted azacycles” (FMC Corporation, priority 2003, dated 2012)
